Earlier results, collected in PMC5641599 (Molecular Metabolism, 2017).
Read-outs that look alike come from different tables or passages of the source.

How the values were obtained:
MC4R variants [1] = details: cited from earlier work
MC4R variants [2] = details: cited from earlier work; remark: listed apart in the source

## NDP-MSH
MC4R variants [1]; MC4R N97D, ref Yeo GS, Hum Mol Genet, 2003
  Binding Bmax (% of WT): 10.5 % of WT
MC4R variants [1]; MC4R N274S, ref Tao YX, Endocrinology, 2003
  Binding Bmax (% of WT): 144.0 % of WT
MC4R variants [1]; MC4R N274S, ref Xiang Z, Biochemistry, 2006
  Binding Bmax (% of WT): 66.7 % of WT
MC4R variants [1]; MC4R P48S, ref Tao YX, Endocrinology, 2003
  Binding Bmax (% of WT): 79.0 % of WT
MC4R variants [1]; MC4R P48S, ref Xiang Z, Biochemistry, 2010
  Binding Bmax (% of WT): 48.6 % of WT
MC4R variants [1]; MC4R P78L, HEK293 cell line, ref Huang H, Int J Biol Sci, 2014
  Binding Bmax (% of WT): 0.0 % of WT
MC4R variants [1]; MC4R P78L, ref Nijenhuis WA, J Biol Chem, 2003
  Binding Bmax (% of WT): 0.9 % of WT
MC4R variants [1]; MC4R P78L, ref Tao YX, Endocrinology, 2003
  Binding Bmax (% of WT): 0.0 % of WT
MC4R variants [1]; MC4R P78L, ref Xiang Z, Biochemistry, 2006
  Binding Bmax (% of WT): 0.556 % of WT
MC4R variants [1]; MC4R P299H, ref Roubert P, J Endocrinol, 2010
  Binding Bmax (% of WT): 0.0 % of WT
MC4R variants [1]; MC4R P299H, ref Xiang Z, Biochemistry, 2006
  Binding Bmax (% of WT): 1.2 % of WT
MC4R variants [1]; MC4R P299L, ref Xiang Z, Biochemistry, 2010
  Binding Bmax (% of WT): 2.4 % of WT
MC4R variants [1]; MC4R R305W, ref Roubert P, J Endocrinol, 2010
  Binding Bmax (% of WT): 193.9 % of WT
MC4R variants [1]; MC4R S58C, ref Roubert P, J Endocrinol, 2010
  Binding Bmax (% of WT): 27.6 % of WT
MC4R variants [1]; MC4R S58C, ref Tao YX, Endocrinology, 2003
  Binding Bmax (% of WT): 14.0 % of WT
MC4R variants [1]; MC4R S58C, ref Xiang Z, Biochemistry, 2006
  Binding Bmax (% of WT): 22.2 % of WT
MC4R variants [1]; MC4R S94R, ref Xiang Z, Biochemistry, 2010
  Binding Bmax (% of WT): 0.135 % of WT
MC4R variants [1]; MC4R S295P, ref Tao YX, J Clin Endocrinol Metab, 2005
  Binding Bmax (% of WT): 129.0 % of WT
MC4R variants [1]; MC4R S295P, ref Xiang Z, Biochemistry, 2010
  Binding Bmax (% of WT): 162.2 % of WT
MC4R variants [1]; MC4R T112M, ref Nijenhuis WA, J Biol Chem, 2003
  Binding Bmax (% of WT): 100.0 % of WT
MC4R variants [1]; MC4R T112M, ref Tao YX, J Clin Endocrinol Metab, 2005
  Binding Bmax (% of WT): 130.0 % of WT
MC4R variants [1]; MC4R V50M, ref Roubert P, J Endocrinol, 2010
  Binding Bmax (% of WT): 69.4 % of WT
MC4R variants [1]; MC4R V50M, ref Tao YX, Endocrinology, 2003
  Binding Bmax (% of WT): 74.0 % of WT
MC4R variants [1]; MC4R V50M, ref Xiang Z, Biochemistry, 2010
  Binding Bmax (% of WT): 59.5 % of WT
MC4R variants [1]; MC4R V95I, ref Xiang Z, Biochemistry, 2006
  Binding Bmax (% of WT): 0.7 % of WT
MC4R variants [1]; MC4R V103I, ref Ho G, J Biol Chem, 1999
  Binding Bmax (% of WT): 123.3 % of WT
MC4R variants [1]; MC4R V103I, ref Xiang Z, Biochemistry, 2006
  Binding Bmax (% of WT): 100.0 % of WT
MC4R variants [1]; MC4R Y302F, ref Roth CL, Endocrine, 2009
  Binding Bmax (% of WT): 80.0 % of WT
MC4R variants [1]; MC4R Y332H, ref Santoro N, BMC Med Genet, 2009
  Binding Bmax (% of WT): 100.0 % of WT
MC4R variants [2]; MC4R C40R, COS-7 cell line, ref Tarnow P, J Biol Chem, 2003
  cAMP Emax - Ligand no.3: 118.6 % of WT
MC4R variants [2]; MC4R C40R, ref Rong R, Clin Endocrinol, 2006
  cAMP Emax - Ligand no.3: 87.0 % of WT
MC4R variants [2]; MC4R C40Y, COS-7 cell line, ref Hughes DA, Hum Genet, 2009
  cAMP Emax - Ligand no.3: 103.0 % of WT
MC4R variants [2]; MC4R D37G, ref Hughes DA, Hum Genet, 2009
  cAMP Emax - Ligand no.3: 83.0 % of WT
MC4R variants [2]; MC4R F280AfsX12, ref Xiang Z, Biochemistry, 2006
  cAMP Emax - Ligand no.3: 0.0 % of WT
MC4R variants [2]; MC4R I251WfsX34, ref Xiang Z, Biochemistry, 2010
  cAMP Emax - Ligand no.3: 0.0 % of WT
MC4R variants [2]; MC4R L211MfsX6, HEK293, ref Ho G, J Biol Chem, 1999
  cAMP Emax - Ligand no.3: 0.0 % of WT
MC4R variants [2]; MC4R L211MfsX6, ref Xiang Z, Biochemistry, 2006
  cAMP Emax - Ligand no.3: 0.0 % of WT
MC4R variants [2]; MC4R Q43X, ref Alfieri A, Gene, 2010
  cAMP Emax - Ligand no.3: 0.0 % of WT
MC4R variants [2]; MC4R Q307X, COS-7 cell line, ref Reinehr T, Obesity, 2009
  cAMP Emax - Ligand no.3: 0.0 % of WT
MC4R variants [2]; MC4R Q307X, ref Santoro N, BMC Med Genet, 2009
  cAMP Emax - Ligand no.3: 0.0 % of WT
MC4R variants [2]; MC4R R7C, COS-7 cell line, ref Hinney A, J Clin Endocrinol Metab, 2006
  cAMP Emax - Ligand no.3: 75.0 % of WT
MC4R variants [2]; MC4R R7C, ref Fan ZC, J Cell Mol Med, 2009
  cAMP Emax - Ligand no.3: 102.0 % of WT
MC4R variants [2]; MC4R S19AfsX34, ref Alfieri A, Gene, 2010
  cAMP Emax - Ligand no.3: 0.0 % of WT
MC4R variants [2]; MC4R S36T, COS-7 cell line, ref Hughes DA, Hum Genet, 2009
  cAMP Emax - Ligand no.3: 88.0 % of WT
MC4R variants [2]; MC4R T11A, ref Tao YX, J Clin Endocrinol Metab, 2005
  cAMP Emax - Ligand no.3: 109.0 % of WT
MC4R variants [2]; MC4R T246DfsX41, HEK293, ref Ho G, J Biol Chem, 1999
  cAMP Emax - Ligand no.3: 0.0 % of WT
MC4R variants [2]; MC4R VADML88_92del, ref Donohoue PA, J Clin Endocrinol Metab, 2003
  cAMP Emax - Ligand no.3: 0.0 % of WT
MC4R variants [2]; MC4R W16X, COS-7, ref Bolze F, Pharmacogenomics J, 2013
  cAMP Emax - Ligand no.3: 20.0 % of WT
MC4R variants [2]; MC4R Y35C, ref Rong R, Clin Endocrinol, 2006
  cAMP Emax - Ligand no.3: 105.0 % of WT
MC4R variants [2]; MC4R Y35X, ref Xiang Z, Biochemistry, 2006
  cAMP Emax - Ligand no.3: 0.0 % of WT
